In PubChem BioAssay AID2060505 (Molecular Pharmacology Branch, DTP, NCI, 2025):
One block for each molecule: values may come before it.

System: 633275-114-R-J1-PDC complex spheroids, viability
Test: Anticancer human tumor 633275-114-R-J1-PDC patient-derived endometrial adenocarcinoma cell line growth inhibition [GQUAD]
Conditions: for IC50: curve of first compound; for viability, T/C: stronger effect = lower value
Source text: DNA G-quadruplex Stabilizer Agents in Combinations in Complex Spheroids
A high-throughput screen of multi-cell type tumor spheroids was designed to identify active combinations of DNA G-quadruplex stabilizer agents and targeted small molecules. Complex spheroids include a stromal component modeled by human endothelial cells (HUVEC) and fibroblasts modeled by human mesenchymal stem cells (MSCs). The concentration ranges selected for each drug and investigational agent were based upon clinically achievable concentrations if the clinical Cmax of the agent was known.
Compounds. The drugs and investigational agents: pidnarulex (CX-5461; NSC782164), APTO-253 (NSC789042), BRACO-19 (NSC847499), peposertib (NSC802822), ceralasertib (NSC780249), elimusertib (NSC800525), camonsertib (NSC841442), AZD-1390 (NSC803789), olaparib (NSC753686), talazoparib (NSC767125), ART-558 (NSC835418), sotorasib (NSC818433), MRTX-1133 (NSC836407), SN-38 (NSC673596), topotecan (NSC609699), etoposide (NSC141540), doxorubicin (NSC123127), gemcitabine (NSC613327), 5-fluorouracil (NSC19893), paclitaxel (NSC125973), vemurafenib (NSC761431), panobinostat (NSC761190), R-306465 (JNJ-16241199; NSC773264), adavosertib (NSC754352), TP-3654 (NSC805149), carboplatin (NSC241240), KSQ-4279 (NSC840948), and staurosporine (NSC755774) were obtained from the National Cancer Institute (NCI) Developmental Therapeutics Program Chemical Repository (34). The FDA-approved anticancer drug set is available from the NCI Developmental Therapeutics Program. […] The stock solutions were prepared in dimethyl sulfoxide (DMSO, Sigma-Aldrich, St. Louis, MO, cat. D2650) at 800-fold the tested concentration and stored at -70 degrees C prior to their use. All drugs and investigational agents were tested over a range starting from a high concentration at or near the clinical Cmax and decreasing in half-log increments. If the clinical Cmax for an agent had not been determined, the highest concentration tested was 10 microM.
2.3 Cell Culture. All cells were maintained in an incubator at 37 degrees C and 5% CO2 with 95% humidity. The PDC lines were cultured according to standard operating procedures established by the NCI PDMR. All PDCs were thawed and cultured in Matrigel-coated flasks prepared with a working solution of 1X Ham's F-12 nutrient mix, without supplementation (Invitrogen, cat. 11765054), 100 U/mL penicillin-streptomycin (Invitrogen, cat. 15140122), and 2.5% Matrigel (Corning Inc., cat. 354248) for the first three passages. The 857933-349-R-J2-PDC line was cultured in 6C/Colon 1B media, which includes advanced DMEM/F-12 (Thermo Fisher Scientific, cat. 12634028), 10 mM HEPES (Thermo Fisher Scientific, cat. 15630080), 1X GlutaMAX supplement (Thermo Fisher Scientific, cat. 35050061), 0.1 mg/mL primocin (InvivoGen, cat. ant-pm-2), 10% defined fetal bovine serum, heat inactivated (HyClone Laboratories Inc., cat. SH30070.03HI), 50% L-WRN conditioned media (ATCC, cat. CRL-3276), 1.25 mM N-Acetyl-L-cysteine (Sigma-Aldrich, cat. A9165), 10 mM nicotinamide (Sigma-Aldrich, cat. N0636), 1X B-27 supplement (Thermo Fisher Scientific, cat. 17504044), 1X N-2 supplement (Thermo Fisher Scientific, cat. 17502048), 10 microM Y-27632 dihydrochloride (Tocris Bioscience, cat. 1254), and 50 ng/mL human EGF recombinant protein (Thermo Fisher Scientific, cat. PHG0311). The 485176-168-R4-J1-PDC line was cultured in Panc media, which includes all 6C/Colon 1B media components plus 100 ng/mL human FGF-10 (Thermo Fisher Scientific, cat. 100-26), 500 nM SB-431542 (Selleckchem, cat. S1067), and gastrin (Tocris, cat. 3006).
[…]

[1] = second compound 0.0316 µM, first compound 0.0316 µM
[2] = second compound 0.0316 µM, first compound 0.316 µM
[3] = second compound 0.1 µM, first compound 0.0316 µM
[4] = second compound 0.1 µM, first compound 0.316 µM
[5] = second compound 0.316 µM, first compound 0.0316 µM
[6] = second compound 0.316 µM, first compound 0.316 µM
[7] = second compound 1 µM, first compound 0.0316 µM
[8] = second compound 1 µM, first compound 0.316 µM
[9] = second compound 3.16 µM, first compound 0.0316 µM
[10] = second compound 3.16 µM, first compound 0.316 µM
[11] = second compound 10 µM, first compound 0.0316 µM
[12] = second compound 10 µM, first compound 0.316 µM
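Further: spheroids exposed to the agents for seven days.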
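Wherever viability, T/C is given: percent of DMSO vehicle control viability which is 100%.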

IC50 (second compound 0.0316 µM): > 10000 nM | IC50 (second compound 0.1 µM): 814 nM | IC50 (second compound 0.316 µM): < 31.6 nM | IC50 (second compound 1 µM): < 31.6 nM | IC50 (second compound 3.16 µM): < 31.6 nM | IC50 (second compound 10 µM): < 31.6 nM
SMILES: Cc1cccc(N(C)C(=O)C2C(O)CCN2c2nc(C)cc(C(F)(F)F)c2C#N)c1 (centres undefined) + Cc1cnc(CNC(=O)c2c(=O)c3ccc(N4CCCN(C)CC4)nc3n3c2sc2ccccc23)cn1
viability, T/C [1]: 66.2% | viability, T/C (second compound 0.0316 µM, first compound 0.1 µM): 64.1% | viability, T/C [2]: 59.2% | viability, T/C (second compound 0.0316 µM, first compound 1 µM): 65% | viability, T/C (second compound 0.0316 µM, first compound 3.16 µM): 60.5% | viability, T/C (second compound 0.0316 µM, first compound 10 µM): 67.8% | viability, T/C [3]: 55.1% | viability, T/C (second compound 0.1 µM, first compound 0.1 µM): 52% | viability, T/C [4]: 53.7% | viability, T/C (second compound 0.1 µM, first compound 1 µM): 48.3% | viability, T/C (second compound 0.1 µM, first compound 3.16 µM): 47.5% | viability, T/C (second compound 0.1 µM, first compound 10 µM): 46.8% | viability, T/C [5]: 40% | viability, T/C (second compound 0.316 µM, first compound 0.1 µM): 41.5% | viability, T/C [6]: 46% | viability, T/C (second compound 0.316 µM, first compound 1 µM): 50.9% | viability, T/C (second compound 0.316 µM, first compound 3.16 µM): 43.4% | viability, T/C (second compound 0.316 µM, first compound 10 µM): 44.5% | viability, T/C [7]: 41.2% | viability, T/C (second compound 1 µM, first compound 0.1 µM): 42.1% | viability, T/C [8]: 41.4% | viability, T/C (second compound 1 µM, first compound 1 µM): 39.9% | viability, T/C (second compound 1 µM, first compound 3.16 µM): 37.3% | viability, T/C (second compound 1 µM, first compound 10 µM): 37.7% | viability, T/C [9]: 36.3% | viability, T/C (second compound 3.16 µM, first compound 0.1 µM): 35% | viability, T/C [10]: 32.1% | viability, T/C (second compound 3.16 µM, first compound 1 µM): 33.5% | viability, T/C (second compound 3.16 µM, first compound 3.16 µM): 37.2% | viability, T/C (second compound 3.16 µM, first compound 10 µM): 35% | viability, T/C [11]: 27.2% | viability, T/C (second compound 10 µM, first compound 0.1 µM): 33.9% | viability, T/C [12]: 27.9% | viability, T/C (second compound 10 µM, first compound 1 µM): 31.4% | viability, T/C (second compound 10 µM, first compound 3.16 µM): 34.2% | viability, T/C (second compound 10 µM, first compound 10 µM): 24.2%

IC50 (second compound 0.0316 µM): 114 nM | IC50 (second compound 0.1 µM): < 0.999 nM | IC50 (second compound 0.316 µM): < 0.999 nM | IC50 (second compound 1 µM): < 0.999 nM | IC50 (second compound 3.16 µM): < 0.999 nM | IC50 (second compound 10 µM): < 0.999 nM
SMILES: Cn1ncnc1[C@H]1c2n[nH]c(=O)c3cc(F)cc(c23)N[C@@H]1c1ccc(F)cc1 + Cc1cnc(CNC(=O)c2c(=O)c3ccc(N4CCCN(C)CC4)nc3n3c2sc2ccccc23)cn1
viability, T/C (second compound 0.0316 µM, first compound 0.000999 µM): 64% | viability, T/C (second compound 0.0316 µM, first compound 0.00316 µM): 63.3% | viability, T/C (second compound 0.0316 µM, first compound 0.00999 µM): 63.2% | viability, T/C [1]: 58.9% | viability, T/C (second compound 0.0316 µM, first compound 0.0999 µM): 46.5% | viability, T/C [2]: 44.3% | viability, T/C (second compound 0.1 µM, first compound 0.000999 µM): 47.9% | viability, T/C (second compound 0.1 µM, first compound 0.00316 µM): 51.3% | viability, T/C (second compound 0.1 µM, first compound 0.00999 µM): 50.2% | viability, T/C [3]: 42.2% | viability, T/C (second compound 0.1 µM, first compound 0.0999 µM): 39.3% | viability, T/C [4]: 38.2% | viability, T/C (second compound 0.316 µM, first compound 0.000999 µM): 41.9% | viability, T/C (second compound 0.316 µM, first compound 0.00316 µM): 43.7% | viability, T/C (second compound 0.316 µM, first compound 0.00999 µM): 43.2% | viability, T/C [5]: 37.7% | viability, T/C (second compound 0.316 µM, first compound 0.0999 µM): 37.6% | viability, T/C [6]: 34.8% | viability, T/C (second compound 1 µM, first compound 0.000999 µM): 39.1% | viability, T/C (second compound 1 µM, first compound 0.00316 µM): 37.4% | viability, T/C (second compound 1 µM, first compound 0.00999 µM): 37.9% | viability, T/C [7]: 35% | viability, T/C (second compound 1 µM, first compound 0.0999 µM): 34% | viability, T/C [8]: 34% | viability, T/C (second compound 3.16 µM, first compound 0.000999 µM): 31.8% | viability, T/C (second compound 3.16 µM, first compound 0.00316 µM): 38.6% | viability, T/C (second compound 3.16 µM, first compound 0.00999 µM): 36.6% | viability, T/C [9]: 36.7% | viability, T/C (second compound 3.16 µM, first compound 0.0999 µM): 29.4% | viability, T/C [10]: 29.8% | viability, T/C (second compound 10 µM, first compound 0.000999 µM): 32.8% | viability, T/C (second compound 10 µM, first compound 0.00316 µM): 31% | viability, T/C (second compound 10 µM, first compound 0.00999 µM): 28.4% | viability, T/C [11]: 30.9% | viability, T/C (second compound 10 µM, first compound 0.0999 µM): 28.9% | viability, T/C [12]: 26.6%
